Assay results published in patent publication US7250157B2, “Dermatological compositions and methods” (Applied Genetics Incorporated Dermatics, priority 1996, dated 2007).

How the values were obtained:
[1] = system: Cloudman S91 mouse melanoma cell line; test: Cell count (proliferation, toxicity) of treated S91 cells; type: cell-based; settings: for Cells (×10^6): 4 days, X ± SE, n = 3
Experimental: The Cloudman S91 mouse melanoma cell line was obtained from American Type Culture Collection (ATCC). Cells were cultured in Dulbecco's Modified Eagles Medium (DMEM) containing 10% calf serum, 2 mM L-glutamine, 10 U Penicillin/ml and 10 ug Streptomycin/ml according to a previously published protocol (Eller, et al., Proc. Natl. Acad. Sci. 93:1087-92. 1996). For testing propylene glycol and analogues for induction of melanogenesis, S91 cells were plated at 10^5 cells/35 mm dish in 10% calf serum. One day after plating, media was removed and replaced with media containing 2% calf serum and test compounds (Eller, et al., 1996). Cells were cultured for 6 days at 37° C. in 5% CO2 in a humidified incubator. Following this treatment period, cells were examined microscopically and the portion of dedifferentiated and differentiated cells was estimated. Previous studies have shown that dedifferentiated S91 cells have a rounded, spindly appearance while differentiated S91 cells have a flattened, cuboidal, multipolar and dendritic appearance (Orlow, et al., Exp. Cell Res. 191:209-218, 1990).
(§1) Following this microscopic examination, cells were detached from dishes by trypsin. The time required for detachment by trypsin was recorded as an additional indicator of the phenotypic effects of test compounds. For each treatment, a subsample of cells was counted to determine the effects of treatment compounds on cellular proliferation. The remainder of cells were used for determination of melanin content. Melanin was extracted from cells by vortexing for 15 min in 1N NaOH. Standards were prepared by dissolving melanin (Sigma) in 1 N NaOH (Eller, et al., 1996). Absorbance of standards and samples was measured at 475 nm. Melanin was expressed as pg melanin/cell.

[2] = system: American short-haired guinea pigs; test: Topical melanogenesis (pigmentation rating) in guinea pigs; type: in vivo, guinea pig; set-up: Pigmentation Rating / Pigmentation Rating Background Corrected: scale not given here; settings: for Pigmentation Rating Normalized to 1,2-PG / Pigmentation Rating Normalized to 1M / Pigmentation Rating Background Corrected / Pigmentation Rating: No Penetration Enhancer; for Pigmentation Rating Normalized to 1,2-PG / Pigmentation Rating Normalized to 1M / Pigmentation Rating Background Corrected: concentrations as E85; for Pigmentation Rating Background Corrected: corrected for Nair control; for Pigmentation Rating: sites c and d, 11.0M 2,3-M-2,3-BD, 11.3M 2-M-1,3-PG, 8.7M 1,2-cs-CPD, 4.0M 3,3-M-1,2-BD
Experimental: Compounds were tested for melanogenic activity in vivo by application to American short-haired guinea pigs. Treatment sites were created by removal of fur using Nair® brand depilatory. In the Table, the numbers presented are the relative melanogenesis rating (mean ±SE), and are arranged according to the relative location on the animal, with the head being to the left and the tail being to the right. Propylene glycol (PG=13.6M), 2,3-butanediol (2,3-BD=10.95M), and 1,2-cis-cyclopentanediol (1,2-cs-CPD=10.7M) were applied as full strength solutions. 3,3-dimethyl-1,2-butanediol (3,3-M-1,2-BD) was applied as a 4M solution dissolved in ethanol. Two weeks following cessation of treatments, the degree of pigmentation was subjectively rated according to the following scale:
In order to minimize the effects of dimunition of response from head to tails of animals, all future experiments were done using only treatment spots located towards the tails of animals (c and d in Table 7). Deemed as additionally beneficial, in this area of the animal differences of responsiveness to strong and weak inducers of pigmentation, as deduced from cell culture, were greatest. […] Pigmentation ratings were corrected for background (control treatment spots), normalized to 1M to account for the different amounts of each agent applied, and then normalized to results for 1,2-PG (Table 8). […] It is anticipated that further improvements in formulation will additionally improve responsiveness to 5-NBene-2,2-DM and other compounds in this invention.
In FIG. 5, a, b, c and d indicate treatment spots that transverse the anterior-posterior axis along the backs of guinea pigs.

[3] = system: nitric oxide in cell-free media from S91 cells; test: Nitric oxide in cell-free media from S91 cells (Greiss reagent); type: cell-based, mouse; settings: 4 days
Experimental: In a related experiment, nitric oxide was measured in cell-free media from S91 cells following treatment with a range of concentrations of 2,3-cis/exo-pinanediol or 5-norbornene-2,2-dimethanol for 4 days. In biological fluids, nitric oxide is converted into nitrite and nitrate with seconds of production. Therefore, nitric oxide is measured by first converting nitrate to nitrite using nitrate reductase, followed by addition of Greiss reagent to detect nitrite as optical density at 550 nm (Moshage, et al., 1995, Clin. Chem. 41:892-896; Schmidt, et al., 1995, Biochemica 2:22)). […] Moreover, the relative melanogenic potency of 2,3-cis/exo-pinanediol and 5-norbornene-2,2-dimethanol shown in FIG. 5 paralleled the relative potency of these compounds with regards to induction of nitric oxide (Table 17). […] It follows that measurement of induction of nitric oxide, cGMP or PKG may provide biochemically relevant screening assays for compounds that may be melanogenic. Thus, the utilization of these assays to screen compounds for melanogenic activity is claimed in the present invention.

[4] = system: tyrosinase activity in S91 mouse melanoma cells; test: Induction of tyrosinase activity in S91 cells; settings: for more tyrosinase activity than 5-norbornene-2,2-dimethanol: calculated from data in FIG. 5; for Tyrosinase dpm/hr 10^3 Cells / Tyrosinase dpm/hr ug Protein: 300 mM PG-1,2, 25 mM 3,3-M-1,2-BD, 50 mM 1,2-cs-CPD, 5 mM 5-NBene-2,2-DM, 0.5 mM 2,3-Pyd, 0.1 mM IBMX, mean ±SE
Experimental: Compounds were examined for their ability to induce tyrosinase activity in S91 mouse melanoma cells. […] Following treatments, cells were trypsinized, counted by Coulter, pelleted by centrifugation at 1000×g, and analyzed for tyrosinase activity using modifications of previously described procedures (Pomerantz, S. H., 1966, J. Biol. Chem. 241:161-168; Jara, et al., 1988, Pigment Cell Res. 1: 332-339.). Briefly, cell pellets were solubilized by sonicating for 5 seconds in 600 ul 50 mM phosphate buffer pH 6.8 containing 0.5% Triton-X100, followed by vortexing, incubation on ice for 30 min, and then revortexing. From this, 200 ul aliquots were combined with 200 ul of reaction mixture containing either 75 uM tyrosine, 75 uM L-Dopa, and 2 uCi L-[3,5-^3H]Tyrosine in 50 mM NaPO4 pH 6.8 (L-Dopa+), or, 75 uM tyrosine, and 2 uCi L-[3,5-^3H]Tyrosine in 50 mM NaPO4 pH 6.8 (L-Dopa−) and incubated 1 hr at 37° C. Reactions were stopped by addition of 400 ul 10% activated charcoal in 0.1N HCl and incubation on ice for 15 min. This mixture was centrifuged at 17,300×g for 5 min, and 400 ul supernatant was then filtered through a 0.22 uM GV Durapore centifugal filter unit (Millipore) by centrifuging at 17,300×g for 5 min. Filtrate was added to 4 ml Fisher Plus scintillation fluid and counted on a Hewlett Packard scintillation counter. Tyrosinase activity was calculated as dpm/hr/ug protein and dpm/hr/10^3 cells. Each sample was analyzed with and without L-Dopa, a necessary cofactor for tyrosinase (Pomerantz, S. H., 1966, J. Biol. Chem. 241:161-168; McLane, et al., 1987, Biochem. Biophys. Res. Commun. 145:719-725). All reported tyrosinase values are exclusive of counts that occurred in buffer blanks and L-dopa negative aliquots. Protein was determined on aliquots of cell lysate, extracellular particulate lysate or media by the Bradford Coomassie Blue method (Bradford, 1967, Anal. Biochem. 72:248-254) using Bio-Rad Protein Assay Kit I.

[5] = system: Cloudman S91 mouse melanoma cell line; test: Melanin content of S91 cells after treatment with test compound; type: cell-based
Experimental: The Cloudman S91 mouse melanoma cell line was obtained from American Type Culture Collection (ATCC). […] For testing propylene glycol and analogues for induction of melanogenesis, S91 cells were plated at 10^5 cells/35 mm dish in 10% calf serum. […] Cells were cultured for 6 days at 37° C. in 5% CO2 in a humidified incubator. Following this treatment period, cells were examined microscopically and the portion of dedifferentiated and differentiated cells was estimated.
as §1, with “Melanin was extracted from cells by vortexing for 15 min in 1N NaOH. Standards were prepared by dissolving melanin (Sigma) in 1 N NaOH (Eller, et al., 1996).” left out

[6] = system: Normal human epidermal melanocytes (NHEMs); test: Melanin induction in normal human epidermal melanocytes; type: cell-based
Experimental: Normal human epidermal melanocytes (NHEMs) were examined for induction of melanogenesis using cells and media from Clonetics Corporation (San Diego, Calif.). Cells were cultured exactly as specified by the supplier.

[7] = spot a (anterior), 8.7M 1,2-cis-CPD in 20% ETOH, 1M 5-NBene-2,2-DM in 8.5 M propylene glycol, 2% 2-pyrrolidone, 20% ETOH, 1M 2,3-cs/ex PD in 50% ETOH
[8] = spot d (posterior), formulations as E220
[9] = range of concentrations up to a toxic dose

| Structure (SMILES) | Pigmentation Ratings (X ± SE; n = 6; scale 0 to +4) [2, 7] | Pigmentation Ratings (X ± SE; n = 6; scale 0 to +4) ([2]; spot b, formulations as E220) | Pigmentation Ratings (X ± SE; n = 6; scale 0 to +4) ([2]; spot c, formulations as E220) | Pigmentation Ratings (X ± SE; n = 6; scale 0 to +4) [2, 8] | Concentration Required for ≧2-fold Melanin Induction in S91 Cells [5] [mM] | Concentration Required for ≧1.5-fold Melanin Induction in NHEMs [6] [mM] | Pigmentation Rating Normalized to 1,2-PG [2] | Pigmentation Rating Normalized to 1M [2] | Pigmentation Rating Background Corrected [2] | Pigmentation Rating ([2]; 13.61M 1,2-PG) | Tyrosinase dpm/hr 10^3 Cells [4] [dpm/hr/10^3 Cells] | Tyrosinase dpm/hr ug Protein [4] [dpm/hr/ug Protein] | further results |
| --- | --- | --- | --- | --- | --- | --- | --- | --- | --- | --- | --- | --- | --- |
| CC1(C)[C@@H]2C[C@H]1[C@@](C)(O)[C@@H](O)C2 (relative stereo) [2,3-cs/ex-PD, 2,3-cis/exo-pinanediol ([1R,2R,3S,5R]-[−]-pinanediol)] | 2.00 ± 0.20 | 1.75 ± 0.17 | 1.75 ± 0.17 | 1.04 ± 0.32 |  |  |  |  |  |  |  |  | Cells (×10^6) ([1]; 0.5 mM): 0.325 ± 0.002 ×10^6; Cells (×10^6) ([1]; 1 mM): 0.258 ± 0.010 ×10^6; Cells (×10^6) ([1]; 2.5 mM): 0.099 ± 0.014 ×10^6; Cells (×10^6) ([1]; 5 mM): 0.064 ± 0.006 ×10^6; nmoles NO/10^6 Cells ([3]; 0.5 mM): 10.9 ± 0.2 nmoles NO/10^6 Cells; uM NO ([3]; 0.5 mM): 3.54 ± 0.06 µM; nmoles NO/10^6 Cells ([3]; 1 mM): 24.5 ± 5.4 nmoles NO/10^6 Cells; uM NO ([3]; 1 mM): 6.36 ± 1.56 µM; nmoles NO/10^6 Cells ([3]; 2.5 mM): 131 ± 15 nmoles NO/10^6 Cells; uM NO ([3]; 2.5 mM): 12.6 ± 0.5 µM; nmoles NO/10^6 Cells ([3]; 5 mM): 174 ± 15 nmoles NO/10^6 Cells; uM NO ([3]; 5 mM): 11.0 ± 1.1 µM; Fold Induction of Tyrosinase Relative to Controls ([4]; 0.5 mM (Table 19)): 5.1X; more tyrosinase activity than 5-norbornene-2,2-dimethanol ([4]; 500 uM): 2.6 fold; Fold Induction of Tyrosinase Relative to Controls ([4]; 1 mM (Table 19)): 17.6X; more tyrosinase activity than 5-norbornene-2,2-dimethanol ([4]; 1 mM): 5.2 fold; Fold Induction of Tyrosinase Relative to Controls ([4]; 2.5 mM (Table 19)): 119X; more tyrosinase activity than 5-norbornene-2,2-dimethanol ([4]; 2.5 mM): 7.3 fold; Fold Induction of Tyrosinase Relative to Controls ([4]; 5 mM (Table 19)): 50.6X; relative melanogenic potency in S91 cells (in words) ([4]; Table 19 data): only slightly more potent than (1S, 2S, 3R, 5S)-(+)-pinanediol |
| O[C@@H]1CCC[C@@H]1O [1,2-cs-CPD, 1,2-cis-cyclopentanediol] | 1.83 ± 0.17 | 1.92 ± 0.43 | 1.92 ± 0.20 | 1.58 ± 0.24 | 10 | 50 | 13.5 ± 1.9 | 0.202 ± 0.029 | 1.75 ± 0.25 | 1.89 ± 0.27 | 276 ± 16 | 925 ± 53 | greater melanogenesis than PG applied at similar body locations ([2]; guinea pig, 5 days): 5.5 fold; relative melanogenesis rating (mean ±SE), scale 0-4 ([2]; site d (tail), 25 μl twice per day for 5 days, rated two weeks after, full strength solutions): 1.83 ± 0.33^2 |
| CC(C)(O)C(C)(C)O [2,3-M-2,3-BD, 2,3-dimethyl-2,3-butanediol] |  |  |  |  | 25 | 50 | 1.0 ± 0.6 | 0.015 ± 0.008 | 0.17 ± 0.09 | 0.25 ± 0.14 |  |  | pigmentation response versus control (Nair or 2% 2P treated) spots ([2]; sites towards tail, 13.61M 1,2-PG, 10.6M 1,2-PG/2% 2P, 11M 2,3-dimethyl-2,3-butanediol): not significantly different from control |
| Oc1cccnc1O [2,3-Pyridinediol, 2,3-pyridinediol] |  |  |  |  | 0.1 | 0.2 |  |  |  |  | 142 ± 8 | 160 ± 19 | toxicity to S91 cells ([1]; levels higher than 500 uM): toxic |
| O=C[C@H](O)[C@H](O)[C@H](O)CO [D-ribose] |  |  |  |  |  |  |  |  |  |  |  |  | melanogenesis in S91 cells (≧2-fold increase = significant) [5, 9]: did not induce significant (≧2-fold increase) melanogenesis; melanin induction in NHEMs (in words) [6, 9]: inactive |
